Our source for the IC50 values is ChEMBL document CHEMBL1128137, “A novel series of highly potent 5-lipoxygenase inhibitors; 2-aryldienylbenzoxazoles” (Bioorg Med Chem Lett, 1995).

Each structure is given as a SMILES string.

By IC50 is commonly meant the concentration that inhibits the measured activity by half. A higher IC50 goes with weaker potency.

The test deals with T1, Polyunsaturated fatty acid 5-lipoxygenase (Rattus norvegicus, UniProt P12527).
T1 sequence (P12527 whole entry): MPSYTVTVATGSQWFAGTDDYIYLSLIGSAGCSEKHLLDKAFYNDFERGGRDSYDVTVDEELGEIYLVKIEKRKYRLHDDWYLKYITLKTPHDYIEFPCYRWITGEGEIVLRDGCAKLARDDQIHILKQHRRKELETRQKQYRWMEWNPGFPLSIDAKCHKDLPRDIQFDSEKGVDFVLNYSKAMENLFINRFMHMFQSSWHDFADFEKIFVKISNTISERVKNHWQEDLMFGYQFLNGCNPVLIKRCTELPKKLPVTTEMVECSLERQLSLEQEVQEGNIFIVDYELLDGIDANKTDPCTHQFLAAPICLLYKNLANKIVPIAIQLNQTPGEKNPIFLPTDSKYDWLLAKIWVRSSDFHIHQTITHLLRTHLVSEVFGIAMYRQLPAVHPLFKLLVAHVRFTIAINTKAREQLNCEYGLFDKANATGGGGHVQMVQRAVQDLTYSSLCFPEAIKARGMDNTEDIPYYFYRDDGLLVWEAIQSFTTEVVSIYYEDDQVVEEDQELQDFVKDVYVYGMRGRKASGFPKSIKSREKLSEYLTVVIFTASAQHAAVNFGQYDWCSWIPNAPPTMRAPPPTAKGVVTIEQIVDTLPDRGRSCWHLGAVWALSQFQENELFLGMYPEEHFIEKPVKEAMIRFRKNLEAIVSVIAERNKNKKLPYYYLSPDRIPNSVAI
In words: Inhibition of 5-lipoxygenase of rat basophilic leukemia (RBL) cell cytosolic enzymes. Also on record: species or system RBL-1.
With `COc1cc(/C=C/C=C/c2nc3cc(Cl)ccc3o2)ccc1O`, it took 380 nM to reach half-maximal inhibition (IC50).
As for `COc1cc(/C=C/C=C/C(=O)NCCN2CCC(OC(c3ccccc3)c3ccccc3)CC2)ccc1O`, the figure is 150 nM.
Under `Oc1ccc(/C=C/C=C/c2nc3ccccc3o2)cc1O` stands 30 nM; under `COc1cc(/C=C/C=C/c2nc3ccccc3o2)ccc1O`, 330 nM.
For the compound `COc1cc(/C=C/C=C/c2nc3ccc(CO)cc3o2)ccc1O`, the IC50 was found to be 300 nM.
The compound `COc1cc(/C=C/C=C/c2nc3ncccc3o2)ccc1O` came in with an IC50 of 370 nM.
Regarding `COc1cc(/C=C/C=C/c2nc3c(ccc4ccccc43)o2)ccc1O`, 170 nM corresponded to half-maximal inhibition (IC50).
As for `COc1cc(/C=C/C=C/c2nc3cc(C(=O)O)ccc3o2)ccc1O`, the figure is 5800 nM; as for `COc1cc(/C=C/C=C/c2nc3cc(CO)ccc3o2)ccc1O`, 260 nM.
As for `CCOC(=O)c1ccc2nc(/C=C/C=C/c3ccc(O)c(OC)c3)oc2c1`, inhibition was half-maximal at 130 nM (IC50).
As for `CCOC(=O)c1ccc2oc(/C=C/C=C/c3ccc(O)c(OC)c3)nc2c1`, the figure is 250 nM; as for `COc1cc(/C=C/C=C/c2nc3cc(C)ccc3o2)ccc1O`, 290 nM.
As for `CCOC(=O)c1ccc2oc(/C=C/C=C/c3ccc(O)c(O)c3)nc2c1`, the figure is 20 nM; as for `CCOC(=O)/C=C/c1ccc(O)c(O)c1` [ETHYL CAFFEATE], 1150 nM.
